According to patent US7981859B2, “Glycopeptide composition with improved antibiotic activity” (Xellia Pharmaceuticals APS, priority 2003, dated 2011):

What was measured:
S. aureus ATCC 6538 = assay: Modified "MIC" test in micro titer trays (liquid medium); format: cell-based, Staphylococcus aureus
Experimental: (§1) Potency of Teicoplanin TA2, TA3-1 alone or in combination was determined by agar diffusion assays. Furthermore, the antimicrobial effect of pure and spiked products was investigated through the determination of the minimum inhibitory concentration (MIC) by a modified “MIC” test in micro titer trays.
Pure TA3-1, (Teicoplanin Material B 96% TA2-X, 4% TA3-1) and mixtures thereof were used. The test strain used was S. aureus ATCC 6538 in final concentrations of 5×10^5/ml and 5×10^4/ml respectively. The test was carried out in micro titer trays as a modification of an ordinary MIC test. Instead of using two-fold dilutions, 0.40-1.20 μg/ml with 0.20 μl divisions and 1.0-4.0 μl/ml with 1.0 μl divisions was used. The trays were incubated at 37° C. The wells were examined after 24 hours and any visible growth was noted.
In order to strengthen the evidence some experiments were performed with a modified antimicrobial analysis of Teicoplanin, spiked with different amounts of TA3-1. It was carried out in liquid medium in contrast to the agar diffusion tests and determined the MIC values. The results are summarized in Table 4, (“MIC”-values of Teicoplanin and/or TA3-1 on S. aureus ATCC6538).
(§2) Potency of teicoplanin TA2, TA3-1 alone or in combinations was determined by agar diffusion assays as described in example 1. Modified MIC-values in microtitre trays were determined as described in example 1.

[1] = system: Staphylococcus aureus ATCC 6538; assay: Microbiological potency by agar diffusion; format: cell-based
Experimental: Accordingly, in one embodiment a Teicoplanin composition as described herein, has a higher antibiotic activity than a corresponding Teicoplanin composition that has a %(mg TA3)/(mg TA3+TA2) of 6.5%, where the antibiotic activity is measured by a microbiological agar diffusion assay using Staphylococcus aureus ATCC 6538 as test strain and the measured potential potency (IU per mg TA2+TA3/g composition) is used to calculate the antibiotic activity.
Procedure for the Determination of Microbiological Potency by Agar Diffusion
as §1
The potency test is carried out according to the assay described below. […]
The results are analyzed by reading the zone diameters carefully with a 10× magnification and a precision of 0.1 mm. […]
as §2

CC(=O)N[C@H]1[C@H](O[C@@H]2c3ccc(c(Cl)c3)Oc3cc4cc(c3O)Oc3ccc(cc3Cl)C[C@H]3NC(=O)[C@H](N)c5ccc(O)c(c5)Oc5cc(O)cc(c5)[C@H](NC3=O)C(=O)N[C@H]4C(=O)N[C@H]3C(=O)N[C@@H]2C(=O)N[C@H](C(=O)O)c2cc(O)cc(O[C@H]4O[C@H](CO)[C@@H](O)[C@H](O)[C@@H]4O)c2-c2cc3ccc2O)O[C@H](CO)[C@@H](O)[C@@H]1O [TA3-1, Teicoplanin A3-1]
MIC value relative to Targocid alone (times higher) (S. aureus ATCC 6538; Example 2, FIG. 6, MIC in μg powder/ml solution): 4-5 times
MIC (μg/ml) 5 × 10^4/ml S.aureus (S. aureus ATCC 6538; inoculum 5 × 10^4/ml, 37° C., read after 24 hours, lowest concentration without visible growth): 2–3 μg/ml
MIC (μg/ml) 5 × 10^5/ml S.aureus (S. aureus ATCC 6538; inoculum 5 × 10^5/ml, 37° C., read after 24 hours, lowest concentration without visible growth): 2–3 μg/ml
Potency IU/mg powder ([1]; Example 1, agar diffusion, 2-point assay, potency of the powder as such): 570 IU/mg powder
potency by agar diffusion (IU/mg powder) compared with Targocid alone ([1]; Example 2, FIG. 5, Targocid/TA3-1 solutions mixed at different mass TA3-1%): much lower potency
